Results: ChEMBL document CHEMBL1147725, “Identification and biological characterization of 6-aryl-7-isopropylquinazolinones as novel TRPV1 antagonists that are effective in models of chronic pain” (J Med Chem, 2006)

Target: Transient receptor potential cation channel subfamily V member 1 (Homo sapiens, UniProt Q8NER1)
Test: Inhibition of calcium influx evoked by capsaicin in human TRPV1 expressing cells by fluorescence assay
Type: functional

Sequence of Transient receptor potential cation channel subfamily V member 1 (Q8NER1 whole entry): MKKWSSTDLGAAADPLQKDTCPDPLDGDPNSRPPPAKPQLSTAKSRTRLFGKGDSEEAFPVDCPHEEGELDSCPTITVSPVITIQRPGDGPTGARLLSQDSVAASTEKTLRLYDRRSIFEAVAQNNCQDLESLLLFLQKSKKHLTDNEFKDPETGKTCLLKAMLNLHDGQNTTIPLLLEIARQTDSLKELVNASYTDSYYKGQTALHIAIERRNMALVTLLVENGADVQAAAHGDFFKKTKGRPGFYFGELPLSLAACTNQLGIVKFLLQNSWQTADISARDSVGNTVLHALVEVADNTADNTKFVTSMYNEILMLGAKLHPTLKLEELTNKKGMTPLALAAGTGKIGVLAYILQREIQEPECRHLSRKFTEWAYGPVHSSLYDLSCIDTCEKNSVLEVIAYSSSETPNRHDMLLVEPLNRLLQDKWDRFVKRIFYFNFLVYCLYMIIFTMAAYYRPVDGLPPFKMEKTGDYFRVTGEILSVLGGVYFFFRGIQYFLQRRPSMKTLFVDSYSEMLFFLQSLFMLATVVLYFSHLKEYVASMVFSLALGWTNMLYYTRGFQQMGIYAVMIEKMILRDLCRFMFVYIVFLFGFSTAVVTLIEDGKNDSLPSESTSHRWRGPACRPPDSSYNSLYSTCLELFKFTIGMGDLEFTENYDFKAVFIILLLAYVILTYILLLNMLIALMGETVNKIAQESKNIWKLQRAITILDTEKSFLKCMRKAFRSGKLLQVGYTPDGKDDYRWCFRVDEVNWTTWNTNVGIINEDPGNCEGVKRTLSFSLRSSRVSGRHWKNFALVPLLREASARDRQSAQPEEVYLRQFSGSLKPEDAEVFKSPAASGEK

Row | IC50 [nM] | Compound
1 | 14 | COc1cc(-c2cc3c(=O)[nH]c(C)nc3cc2C(C)C)ccc1Cl
2 | 31 | Cc1nc(O)c2cc(-c3ccc4c(c3)OCO4)c(C(C)C)cc2n1
3 | 216 | COCCOc1cc(-c2cc3c(=O)[nH]c(C)nc3cc2C(C)C)ccc1Cl
